# Entries after “also recorded” stand apart in the source; their conditions may differ.
# What was measured:
# [1] = test system: UPEC K1 strain UTI80; settings: cited from earlier work
# [2] = test system: Bladder carcinoma 5637 cells; settings: earlier report; cited from earlier work
# [3] = test system: K1 capsule of UTI89; assay: Secondary assay 3: orcinol assay for released K1 capsule polysaccharide; type: cell-based, Escherichia coli; settings: 100 μM, K1 strain UTI89
# Description: E. Secondary Assay 3: Orcinol Secondary Screening for Inhibitors of Bacterial Capsule Biogenesis.
# Purpose: This assay was performed only on the probe candidate. […] The biochemical determination of cell-surface associated capsule was performed using UTI89 or the Delta Region I and Delta Region II capsule mutant bacterial strains.
# Purpose: This assay was performed only on the probe candidate. […] The biochemical determination of cell-surface associated capsule was performed using UTI89 or the delta Region I and Region II capsule mutant bacterial strains.
# Assay Description: The biochemical measurement of cell-surface associated capsule was performed. UTI89 or capsule mutants were grown in culture tubes with and without the test compound (50 μM). The cultures were centrifuged, and the cell pellets were washed in PBS and resuspended in Tris buffer, pH5. […] Released polysaccharide was harvested by separation from whole bacteria by centrifugation followed by deproteination with phenol/chloroform and precipitation with ethanol. The precipitated material was subjected to acid hydrolysis (pH 2 at 80° C. for 1 hr) and incubated with orcinol, which reacts with periodic intermediates to produce a violet color quantified at OD 570 (3) Inhibitors reducing or abrogating surface encapsulation yielded low orcinol levels similar to the capsule export and synthesis mutants (Region I and II). The positive control drug C7 (100 μM final well concentration) was used in this screen.
# Endpoint Read: The samples were read at ambient temperature from the bottom for absorbance at A570 in a BioTek Quantplate reader and the degree of orcinol-reactive material was determined based on the absorbance compared to a wild-type encapsulated strain (UTI89) and a standard curve using purified sialic acid.
# Orcinol assay for released capsule material. Orcinol reactivity was used as a biochemical confirmation of altered extracellular capsule after compound treatment. UTI89 or an isogenic capsule mutant was grown in 100 μM of test compound or 1% DMSO. The assay was performed as previously described. The molecule C7 (100 μM final concentration) was used as a positive control. The assay was performed 3 times with replicate samples.
# [4] = Cytotoxicity counterscreen, CellTiter Glo, 72 hr; type: cell-based, human; settings: human, bladder carcinoma 5637 cells (ATCC HTB-9), five probe analogues
# Method in brief: (§1)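 5637 bladder carcinoma cells were exposed to a 10-point compound series (300-0.58 μM, 0.5% DMSO) for 72 h. Viability was measured by CellTiter-Glo luminescence, and TC50 (CC50) was derived, with Hyamine as cytotoxic control.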
# [5] = test system: E. coli K1 strain UTI89; assay: microbe, parasite or virus in culture; settings: for Selectivity: five probe analogues
# Method in brief: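 UTI89 cultures in LB with 0.5% DMSO were preincubated 2 hr at 37 °C with compounds (100 μM in screen), then with K1F phage a further 2 hr. Viability was read as Alamar Blue fluorescence. Phage-lysis inhibition is relative to plate bacterial controls; IC50 by 4-parameter fit locked at 0 and 100.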
# [6] = test system: E. coli K1 strain UTI89; assay: Secondary assay 2: T7 phage-mediated lysis assay; type: cell-based, Escherichia coli; settings: read-out: T7 phage IC50
# Method in brief: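 E. coli K1 UTI89 shaken 1.5 h with compound (100–0.39 μM, quadruplicate, 1% DMSO), initial OD600 taken to flag growth effects without phage. T7 phage, whose entry is blocked by K capsule, then added; OD600 lysis read after 3 h at 37 °C, greater lysis indicating less capsule.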
# [7] = test system: K1 antigen of UTI89; assay: K1 antigen whole-cell dot blot with anti-K1 serum; type: cell-based, Escherichia coli; settings: 100 μM
# Description: K1 antigen dot blot. K1 antigen was detected by dot blot assays of culture extracts probed with anti-K1 H46 serum. The assay was performed as previously described. The experiment was repeated twice with similar results, and a representative dot blot is shown.
# [8] = test system: panel of 68 receptors; settings: 10 μM, duplicate; upper bound over all targets
# [9] = test system: E. coli UTI89; assay: Human serum sensitization (MTT); type: cell-based, Escherichia coli; settings: 50 μM compound, p=0.0067 versus control
# Description: Human serum sensitization by capsule inhibitor treatment. Overnight cultures of UTI89 were diluted 1:100 and grown with or without 50 μM compound for approximately 1.5 hrs on a shaker at 37° C. Then 25 μL of anonymous, non-identified, sterile filtered pooled human serum (purchased from Equitech Bio) was added per 100 μL of growth media. This was returned to the shaker for another 3 hrs, after which 20 μL of 5 mg/mL MTT (3-(4,5-Dimethylthiazol-2-yl)-2,5-diphenyltetrazolium bromide) was added. MTT is reduced to purple formazan by bacterial reductase enzymes, thus measuring viable bacteria. This was shaken for another 15 min at 37° C. The sample was spun to remove the growth media, followed by two washes with PBS. The formazan crystals were dissolved in 100 μL of DMSO and measured at OD570.
# [10] = target: norepinephrine transporter (Homo sapiens, UniProt P23975); assay: LeadProfilingScreen, single target; type: binding; settings: duplicate
# Description: Evaluation of off-target effects. Off target effects of lead molecules of interest were evaluated using the LeadProfilingScreen commercial assay at Eurofins Panlabs (Bothell, Wash.). Reference standards were run as an integral part of each assay to ensure the validity of the results obtained. Assay results are presented as the percent inhibition of specific binding or activity (for n=2 replicates) for the probe compound tested at a concentration of 10 μM. Details regarding the individual assays and methods are provided in Supplementary Information File 51.
# DU003 & DU011 are biologically selective. DU003 and DU011 were submitted to the Eurofins Panlabs LeadProfilingScreen to assess off-target pharmacology 1421. […] In review of PubChem data, DU011 (CID23602075) is reported to have shown activity in only 21 of 467 (4.5%, as of Sep. 5, 2013) bioassays in which it was tested (assays unrelated to the current project). Per PubChem, DU003 (CID18109210) is reported to have shown activity in only 5 of 427 (1.2%, as of Sep. 5, 2013) bioassays in which it was tested (assays unrelated to the current project).
# [11] = test system: Bladder carcinoma 5637 cells; assay: Cytotoxicity counterscreen, CellTiter Glo, 72 hr; type: cell-based, human
# Method in brief: as §1
# [12] = Thiol stability (glutathione, DTT); type: physicochemical; settings: 10 μM compound, PBS pH 7.4, room temperature, eight hours
# Description: Compounds were dissolved at 10 μM in PBS at pH 7.4 (1% DMSO) and incubated at room temperature with either no thiol source as a negative control, 50 μM glutathione (GSH), or 50 μM dithiothreitol (DTT). The mixtures were sampled every hour for eight hours and analyzed by RP HPLC/UV/HRMS. The analytical RP HPLCUV/HRMS system utilized for the analysis was a Waters Acquity system with UV-detection and mass-detection (Waters LCT Premier). The analytical method conditions included a Waters Acquity HSS T3 C18 column (2.1×50 mm, 1.8 um) and elution with a linear gradient of 1% water to 100% CH3CN at 0.6 mL/min flow rate. Peaks on the 214 nm chromatographs were integrated using the Waters OpenLynx software. Absolute areas under the curve were compared at each time point to determine relative percent compound remaining. The masses of potential adducts were searched for in the final samples to determine if any detectable adduct formed. All samples were prepared in duplicate (FIG. 5). Ethacrynic acid, a known Michael acceptor, was used as a positive control. If solubility of the compound was an issue at 10 μM, PBS was substituted with PBS with 50% acetonitrile (35).
# [13] = Escherichia coli, read-out: K1 phage IC50, five probe analogues
# [14] = Escherichia coli, five probe analogues
# [15] = Escherichia coli, read-out: K1 phage IC50 (inhibition of K1 capsule formation)
# [16] = read-out: K1 phage IC50, second round of synthetic analogues, n = 3
# [17] = second round of synthetic analogues, n = 2
# Sequence of norepinephrine transporter (P23975 whole entry): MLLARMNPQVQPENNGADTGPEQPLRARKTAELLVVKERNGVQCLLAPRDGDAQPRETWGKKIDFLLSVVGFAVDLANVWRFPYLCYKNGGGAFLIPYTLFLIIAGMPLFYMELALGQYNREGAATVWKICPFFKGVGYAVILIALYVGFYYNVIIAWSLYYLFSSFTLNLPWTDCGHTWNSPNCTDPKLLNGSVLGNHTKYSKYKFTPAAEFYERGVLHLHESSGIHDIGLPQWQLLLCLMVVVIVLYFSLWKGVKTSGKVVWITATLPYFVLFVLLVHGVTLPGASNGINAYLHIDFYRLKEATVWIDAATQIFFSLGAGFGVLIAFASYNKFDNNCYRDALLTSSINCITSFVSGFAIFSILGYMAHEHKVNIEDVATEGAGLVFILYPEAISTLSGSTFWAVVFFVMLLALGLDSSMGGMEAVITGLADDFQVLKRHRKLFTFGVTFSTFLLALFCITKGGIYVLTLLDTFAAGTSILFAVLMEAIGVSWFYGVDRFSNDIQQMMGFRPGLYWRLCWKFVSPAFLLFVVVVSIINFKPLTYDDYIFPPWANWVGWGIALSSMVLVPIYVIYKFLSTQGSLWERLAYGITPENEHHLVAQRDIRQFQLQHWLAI
smiles,measurement,setting,value
"O=C(O)c1cc(-c2ccc(-c3ccccc3)cc2)nc2cc3ccccc3cc12 [C7, 2-(4-phenylphenyl)-benzo[g]quinoline-4-carboxylic acid]",Concentration at which the inhibitory effect reaches saturation,[1],approximately 25 μM
same,IC50,[1]; read-out: Concentration giving approximately 50% inhibition of K1F phage lysis (IC50),12.5 to 25 µM
same,Toxicity to cultured bladder epithelial cells,[2],lacks obvious toxicity
same,Reduction of orcinol-reactive polysaccharides on surface of bacteria,[3],~80%
"CCOc1ccc(-c2cc(NC(=O)c3ccc(Br)s3)c(C(=O)O)s2)cc1 [CID 53470415, 3-(5-Bromothiophene-2-carboxamido)-5-(4-ethoxyphenyl)thiophene-2-carboxylic acid]",IC50 at 72 h,[4],49.7 ± 6.49 µM
same,IC50,[5]; [13],17 ± 4.49 µM
same,Selectivity,[5],2.92
same,IC50,[6]; [14],3.33 µM
"O=C(Nc1cc(-c2ccc(C(F)(F)F)cc2)sc1C(=O)O)c1cc2ccccc2o1 [CID 53470417, 3-(Benzofuran-2-carboxamido)-5-(4-(trifluoromethyl)phenyl)thiophene-2-carboxylic acid]",IC50 at 72 h,[4],72.1 µM
same,IC50,[5]; [13],> 100 µM
same,IC50,[6]; [14],14.1 µM
"COc1ccc(-c2cc(NC(=O)c3ccc(Br)o3)c(C(=O)O)s2)cc1 [CID 53470446, 3-(5-Bromofuran-2-carboxamido)-5-(4-methoxyphenyl)thiophene-2-carboxylic acid]",IC50 at 72 h,[4],50.5 ± 0.52 µM
same,IC50,[5]; [15],11.1 µM
same,IC50,[5]; [13],11.1 ± 3.33 µM
same,Selectivity,[5],4.55
same,IC50,[6]; [14],1.24 µM
"O=C(O)c1sc(-c2ccc(OC(F)(F)F)cc2)cc1NC(=O)c1c(F)cccc1F [CID 53495055, 3-(2,6-Difluorobenzamido)-5-(4-(trifluoromethoxy)phenyl)thiophene-2-carboxylic acid]",IC50 at 72 h,[4],51 ± 2.62 µM
same,IC50,[5]; [15],13 µM
same,IC50,[5]; [13],13 ± 4.6 µM
same,Selectivity,[5],3.91
same,IC50,[6]; [14],1.35 µM
"O=C(Nc1ccncc1)c1ccc2ncsc2c1 [DU003, N-pyridin-4-yl-1,3-benzothiazole-6-carboxamide]",Whole-cell anti-K1 dot blot reactivity,[7],reduces K1 reactive material to levels comparable to those of genetic capsule mutants
same,Inhibition across off-target panel,[8],< 30%
same,Sensitivity of UTI89 to pooled human serum (MTT),[9],further increased serum-mediated killing; also recorded: significantly more sensitive
same,Reduction of orcinol-reactive polysaccharides on surface of bacteria,[3],~80%
same,inhibition at 10 µM,[10],58%
CCCc1ccc(-c2cc(NC(=O)c3c(F)cccc3F)c(C(=O)O)s2)cc1 [compound 56643016],IC50,[11],54.9 µM
same,IC50,[5]; [16],2.63 µM
same,IC50,[6]; [17],< 0.625 µM
CCOc1ccc(-c2cc(NC(=O)c3c(F)cccc3C(F)(F)F)c(C(=O)O)s2)cc1 [compound 56643017],IC50,[11],62 µM
same,IC50,[5]; [16],52.6 µM
same,IC50,[6]; [17],< 5 µM
CCCCOc1ccc(-c2cc(NC(=O)c3cc(Br)c(Br)o3)c(C(=O)O)s2)cc1 [compound 56643019],IC50,[11],31.7 µM
same,IC50,[5]; [16],23.3 µM
same,IC50,[6]; [17],1.25 to 2.5 µM
O=C(O)c1sc(-c2ccc(OCCC(F)(F)F)cc2)cc1NC(=O)c1c(F)cccc1F [compound 56643020],IC50,[11],68.4 µM
same,IC50,[5]; [16],0.84 µM
same,IC50,[6]; [17],< 0.0156 µM
O=C(Nc1cc(-c2ccc(OCCC(F)(F)F)cc2)sc1C(=O)O)c1ccc(Br)o1 [compound 56643022],IC50,[11],41.7 µM
same,IC50,[5]; [16],0.84 µM
same,IC50,[6]; [17],< 0.625 µM
CCCOc1ccc(-c2cc(NC(=O)c3c(F)cc(F)cc3F)c(C(=O)O)s2)cc1 [compound 56643023],IC50,[11],85.6 µM
same,IC50,[5]; [16],8.06 µM
same,IC50,[6]; [17],< 0.625 µM
O=C(O)c1sc(-c2ccc(OCCCC(F)(F)F)cc2)cc1NC(=O)c1c(F)cccc1F [compound 56643024],IC50,[11],241 µM
same,IC50,[5]; [16],10.3 µM
same,IC50,[6]; [17],< 2.5 µM
[N-]=[N+]=NCCOc1ccc(-c2cc(NC(=O)c3c(F)cccc3F)c(C(=O)O)s2)cc1 [compound 56643025],IC50,[11],273 µM
same,IC50,[5]; [16],17.5 µM
same,IC50,[6]; [17],< 0.625 µM
"C=C(CC)C(=O)c1ccc(OCC(=O)O)c(Cl)c1Cl [ethacrynic acid, Ethacrynic acid]",Stability to DTT,[12]; 50 μM DTT,even more rapidly
same,Stability to glutathione,[12]; 50 μM GSH,react rapidly

# From patent US9688653B2, “Ethoxyphenyl thienyl compounds and methods for the treatment of bacterial infections” (Duke University, priority 2013, dated 2017)
